The structures appear in SMILES notation.

In general, Ki refers to the equilibrium dissociation constant of an inhibitor or competing ligand from its target. Low readings indicate higher affinity, high ones lower affinity.

Assay [1] deals with T1, D(3) dopamine receptor (Homo sapiens, UniProt P35462). Kind of assay: biochemical.
In the next assay the target is T2, D(4) dopamine receptor (Homo sapiens, UniProt P21917).
T2 sequence (P21917 whole entry): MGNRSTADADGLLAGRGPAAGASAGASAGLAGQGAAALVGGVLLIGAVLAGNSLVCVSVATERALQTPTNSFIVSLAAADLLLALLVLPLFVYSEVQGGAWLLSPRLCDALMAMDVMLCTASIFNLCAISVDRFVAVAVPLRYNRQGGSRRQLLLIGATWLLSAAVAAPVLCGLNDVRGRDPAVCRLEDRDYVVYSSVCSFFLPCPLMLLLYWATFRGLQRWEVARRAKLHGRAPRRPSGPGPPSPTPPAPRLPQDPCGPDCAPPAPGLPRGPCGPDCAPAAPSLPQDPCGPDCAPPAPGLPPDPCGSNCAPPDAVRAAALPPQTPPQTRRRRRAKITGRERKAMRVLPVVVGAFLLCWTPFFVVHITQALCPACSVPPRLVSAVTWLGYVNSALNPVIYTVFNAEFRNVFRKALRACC

Assay [2] has as its target T3, D(2) dopamine receptor (Homo sapiens, UniProt P14416). The assay is described as follows: biochemical.
Assay [3] concerns the target T3, D(2) dopamine receptor. Kind of assay: biochemical. The source holds these as a separate data set.
A further assay deals with D(1A) dopamine receptor (Bos taurus, UniProt Q95136).
Assay [4] addresses T1, D(3) dopamine receptor. The conditions noted are these: cho.
Assay [5] deals with T3, D(2) dopamine receptor. The assay is described as follows: Ability to displace [3H]spiperone [0.5 nM (Kd=0.2-0.45 nM)] from human cloned dopamine receptor D2S expressed in CHO cells at 0.5 nM concentration. Format: cell-based.

D(1A) dopamine receptor, sequence (Q95136 whole entry): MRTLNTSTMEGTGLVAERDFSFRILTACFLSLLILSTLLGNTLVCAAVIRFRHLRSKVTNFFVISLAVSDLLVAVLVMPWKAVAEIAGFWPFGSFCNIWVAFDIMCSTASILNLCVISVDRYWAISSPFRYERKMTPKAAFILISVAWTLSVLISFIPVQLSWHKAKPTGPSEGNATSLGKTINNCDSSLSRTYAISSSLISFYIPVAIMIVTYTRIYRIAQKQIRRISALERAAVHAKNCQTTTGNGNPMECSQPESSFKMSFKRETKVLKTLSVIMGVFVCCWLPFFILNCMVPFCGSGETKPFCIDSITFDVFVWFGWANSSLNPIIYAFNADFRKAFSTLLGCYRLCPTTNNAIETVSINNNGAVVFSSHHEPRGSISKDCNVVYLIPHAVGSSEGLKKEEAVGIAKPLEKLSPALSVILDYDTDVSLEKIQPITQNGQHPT
T3 sequence (P14416 whole entry): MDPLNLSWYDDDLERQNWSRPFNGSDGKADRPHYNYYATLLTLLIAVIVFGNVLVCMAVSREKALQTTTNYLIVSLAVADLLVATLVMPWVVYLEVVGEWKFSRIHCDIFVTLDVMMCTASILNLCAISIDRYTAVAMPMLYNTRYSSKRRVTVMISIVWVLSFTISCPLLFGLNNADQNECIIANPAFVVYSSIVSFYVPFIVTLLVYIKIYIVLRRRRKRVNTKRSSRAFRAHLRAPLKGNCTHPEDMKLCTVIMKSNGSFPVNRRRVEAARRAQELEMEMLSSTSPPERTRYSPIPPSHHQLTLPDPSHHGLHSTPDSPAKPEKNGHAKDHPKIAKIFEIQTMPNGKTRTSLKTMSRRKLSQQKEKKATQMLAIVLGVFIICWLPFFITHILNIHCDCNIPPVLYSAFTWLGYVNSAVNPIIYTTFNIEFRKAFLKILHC
T1 sequence (P35462 whole entry): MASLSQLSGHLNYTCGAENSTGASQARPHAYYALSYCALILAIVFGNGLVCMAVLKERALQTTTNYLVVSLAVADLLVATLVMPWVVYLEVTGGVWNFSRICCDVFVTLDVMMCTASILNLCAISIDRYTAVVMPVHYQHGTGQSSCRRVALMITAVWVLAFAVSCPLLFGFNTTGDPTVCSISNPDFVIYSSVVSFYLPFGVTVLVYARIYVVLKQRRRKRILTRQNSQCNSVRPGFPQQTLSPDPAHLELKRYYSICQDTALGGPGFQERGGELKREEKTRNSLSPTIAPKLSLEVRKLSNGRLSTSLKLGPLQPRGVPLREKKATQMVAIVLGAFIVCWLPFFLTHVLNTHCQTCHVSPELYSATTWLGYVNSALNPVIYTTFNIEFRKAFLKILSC

Consider `COc1c(C(=O)N[C@H]2CN(Cc3ccccc3)C[C@@H]2C)cc(Br)c2ccccc12` (stereo in doubt; 3d), for which the Ki was 740 nM at D(3) dopamine receptor [1]; 17 nM at D(4) dopamine receptor; 700 nM at D(2) dopamine receptor [2]; 1000 nM on D(2) dopamine receptor [3]; 8400 nM at D(1A) dopamine receptor.

`COc1c(C(=O)N[C@H]2CN(Cc3ccccc3)C[C@H]2C)cc(Br)c2ccccc12` (stereo in doubt; 3f): the Ki on D(3) dopamine receptor [1] is 390 nM; on D(4) dopamine receptor it was 2.7 nM; on D(2) dopamine receptor [2], 135 nM; at D(2) dopamine receptor [3] it was 200 nM; at D(1A) dopamine receptor it was 4700 nM.

Consider `COc1c(C(=O)N[C@@H]2CCN(Cc3ccccc3)C2)cc(C#Cc2ccccc2)c2ccccc12` (stereo in doubt), for which the Ki is 1000 nM at D(3) dopamine receptor [4]; 1500 nM on D(4) dopamine receptor; 5500 nM on D(2) dopamine receptor [2]; 7700 nM on D(2) dopamine receptor [3]; 3300 nM at D(1A) dopamine receptor.

As to `COc1c(C(=O)NCC[C@@H]2CCN(Cc3ccccc3)C2)cc(Br)c2ccccc12` (stereo in doubt), the Ki on D(3) dopamine receptor [1] worked out at 1000 nM; on D(4) dopamine receptor it was 610 nM; on D(2) dopamine receptor [2] it was 2800 nM; at D(2) dopamine receptor [3], 2500 nM; at D(1A) dopamine receptor, 2100 nM.

As to `COc1c(C(=O)N[C@@H]2CCN(Cc3ccccc3)C2)cc(Br)c2ccccc12` (stereo in doubt; 3g), the Ki at D(3) dopamine receptor [1] is 250 nM; at D(2) dopamine receptor [5], 130 nM; at D(4) dopamine receptor, 5 nM; at D(2) dopamine receptor [3], 180 nM; on D(1A) dopamine receptor, 7200 nM.

For the compound `COc1c(C(=O)N[C@H]2CN(Cc3ccccc3)C[C@@H]2C)cc(Br)c2ccccc12` (stereo in doubt), the Ki at D(3) dopamine receptor [1] came out at 140 nM; on D(4) dopamine receptor, 59 nM; at D(2) dopamine receptor [2], 260 nM; at D(2) dopamine receptor [3], 490 nM; at D(1A) dopamine receptor, 4200 nM.

For the compound `CNc1cc(OC)c(C(=O)N[C@H]2CCN(Cc3ccccc3)C[C@@H]2C)cc1Cl` (stereo in doubt), the Ki stood at 13 nM on D(3) dopamine receptor [1]; 1.6 nM on D(4) dopamine receptor; 6.4 nM on D(2) dopamine receptor [2]; 8 nM on D(2) dopamine receptor [3]; 4400 nM at D(1A) dopamine receptor.

For the compound `CNc1cc(OC)c(C(=O)N[C@H]2CN(Cc3ccccc3)C[C@H]2C)cc1Cl` (stereo in doubt), the Ki at D(3) dopamine receptor [1] came out at 1.8 nM; at D(4) dopamine receptor, 0.84 nM; on D(2) dopamine receptor [2] it was 2 nM; on D(2) dopamine receptor [3], 2.3 nM; at D(1A) dopamine receptor, 4700 nM.

With `CNc1cc(OC)c(C(=O)N[C@H]2CCN(Cc3ccccc3)C[C@@H]2C)cc1Cl` (stereo in doubt; 3b), the Ki on D(3) dopamine receptor [1] came out at 510 nM; on D(4) dopamine receptor it was 4.7 nM; at D(2) dopamine receptor [2] it was 39 nM; at D(2) dopamine receptor [3] it was 54 nM; on D(1A) dopamine receptor, 8200 nM.

For the compound `CNc1cc(OC)c(C(=O)N[C@H]2CCCN(Cc3ccccc3)C2)cc1Cl` (stereo in doubt; 5b), the Ki at D(3) dopamine receptor [1] is 560 nM; on D(4) dopamine receptor, 25 nM; at D(2) dopamine receptor [2], 130 nM; on D(2) dopamine receptor [3] it was 170 nM; at D(1A) dopamine receptor, 10000 nM.

With `CNc1cc(OC)c(C(=O)N[C@H]2CCCN(Cc3ccccc3)C2)cc1Cl` (stereo in doubt), the Ki came to 1500 nM at D(3) dopamine receptor [1]; 64 nM at D(4) dopamine receptor; 210 nM at D(2) dopamine receptor [2]; 250 nM at D(2) dopamine receptor [3]; 5600 nM at D(1A) dopamine receptor.

Consider `COc1cc(N)c(Cl)cc1C(=O)N[C@H]1CCCN(Cc2ccccc2)C1` (stereo in doubt), for which the Ki came out at 8700 nM on D(3) dopamine receptor [1]; 530 nM on D(4) dopamine receptor; 4200 nM on D(2) dopamine receptor [2]; 7900 nM at D(2) dopamine receptor [3]; 13000 nM on D(1A) dopamine receptor.

As to `COc1c(C(=O)N[C@@H]2CCN(Cc3ccccc3)C2)cc(Br)c2ccccc12` (stereo in doubt), the Ki on D(3) dopamine receptor [1] stood at 84 nM; on D(4) dopamine receptor it was 21 nM; at D(2) dopamine receptor [2] it was 150 nM; at D(2) dopamine receptor [3] it was 150 nM; on D(1A) dopamine receptor, 7400 nM.

With `COc1cc(N)c(Cl)cc1C(=O)N[C@H]1CCN(Cc2ccccc2)C[C@@H]1C` (stereo in doubt; 3a), the Ki on D(3) dopamine receptor [1] was found to be 2200 nM; on D(4) dopamine receptor, 35 nM; on D(2) dopamine receptor [2] it was 340 nM; at D(2) dopamine receptor [3], 470 nM; at D(1A) dopamine receptor, 19000 nM.

Take `CNc1cc(OC)c(C(=O)N[C@H]2CN(Cc3ccccc3)C[C@@H]2C)cc1Cl` (stereo in doubt): the Ki at D(3) dopamine receptor [1] stood at 27 nM; at D(4) dopamine receptor, 4.3 nM; on D(2) dopamine receptor [2], 11 nM; on D(2) dopamine receptor [3], 15 nM; at D(1A) dopamine receptor, 5300 nM.

Regarding `C#Cc1cc(C(=O)N[C@@H]2CCN(Cc3ccccc3)C2)c(OC)c2ccccc12` (stereo in doubt; 3i), the Ki on D(3) dopamine receptor [1] was found to be 86 nM; at D(4) dopamine receptor it was 2.5 nM; on D(2) dopamine receptor [2], 82 nM; at D(2) dopamine receptor [3], 190 nM; at D(1A) dopamine receptor it was 3300 nM.

On to `C#Cc1cc(C(=O)N[C@@H]2CCN(Cc3ccccc3)C2)c(OC)c2ccccc12` (stereo in doubt), for which the Ki on D(3) dopamine receptor [1] came out at 79 nM; at D(4) dopamine receptor, 7 nM; on D(2) dopamine receptor [2] it was 250 nM; on D(2) dopamine receptor [3] it was 500 nM; on D(1A) dopamine receptor it was 6100 nM.

In the case of `CNc1cc(OC)c(C(=O)N[C@H]2CN(Cc3ccccc3)C[C@H]2C)cc1Cl` (stereo in doubt; 3e), the Ki at D(3) dopamine receptor [1] was determined as 100 nM; on D(4) dopamine receptor, 0.23 nM; on D(2) dopamine receptor [2] it was 3 nM; on D(2) dopamine receptor [3] it was 3.7 nM; on D(1A) dopamine receptor it was 4100 nM.

For `COc1cc(N)c(Cl)cc1C(=O)N[C@H]1CCCN(Cc2ccccc2)C1` (stereo in doubt; 5a), the Ki at D(3) dopamine receptor [1] was 2900 nM; at D(4) dopamine receptor, 200 nM; on D(2) dopamine receptor [2] it was 1100 nM; on D(2) dopamine receptor [3], 1600 nM; at D(1A) dopamine receptor it was 17000 nM.

Turning to `CNc1cc(OC)c(C(=O)N[C@H]2CN(Cc3ccccc3)C[C@@H]2C)cc1Cl` (stereo in doubt; 3c), the Ki came out at 220 nM on D(3) dopamine receptor [1]; 0.77 nM at D(4) dopamine receptor; 19 nM at D(2) dopamine receptor [2]; 21 nM on D(2) dopamine receptor [3]; 12000 nM on D(1A) dopamine receptor.

As to `COc1c(C(=O)N[C@@H]2CCN(Cc3ccccc3)C2)cc(C#Cc2ccccc2)c2ccccc12` (stereo in doubt; 3j), the Ki on D(3) dopamine receptor [1] worked out at 1000 nM; on D(4) dopamine receptor, 500 nM; at D(2) dopamine receptor [2] it was 4000 nM; at D(2) dopamine receptor [3], 6400 nM; on D(1A) dopamine receptor, 2800 nM.

With `COc1cc(N)c(Cl)cc1C(=O)N[C@H]1CCN(Cc2ccccc2)C[C@@H]1C` (stereo in doubt), the Ki worked out at 20 nM at D(3) dopamine receptor [1]; 7.4 nM on D(4) dopamine receptor; 7.4 nM on D(2) dopamine receptor [2]; 8.6 nM on D(2) dopamine receptor [3]; 7100 nM on D(1A) dopamine receptor.

As for `COc1c(C(=O)NC[C@@H]2CCN(Cc3ccccc3)C2)cc(Br)c2ccccc12` (stereo in doubt; 3k), the Ki came to 410 nM on D(3) dopamine receptor [1]; 130 nM at D(4) dopamine receptor; 420 nM at D(2) dopamine receptor [2]; 640 nM on D(2) dopamine receptor [3]; 2100 nM at D(1A) dopamine receptor.

As for `COc1c(C(=O)N[C@@H]2CCN(Cc3ccccc3)C2)cc(I)c2ccccc12` (stereo in doubt), the Ki on D(3) dopamine receptor [1] stood at 33 nM; at D(4) dopamine receptor, 3.3 nM; on D(2) dopamine receptor [2], 70 nM; on D(2) dopamine receptor [3], 190 nM; on D(1A) dopamine receptor, 6100 nM.

In the case of `COc1c(C(=O)N[C@H]2CN(Cc3ccccc3)C[C@H]2C)cc(Br)c2ccccc12` (stereo in doubt), the Ki was 130 nM on D(3) dopamine receptor [1]; 170 nM at D(2) dopamine receptor [5]; 27 nM at D(4) dopamine receptor; 290 nM on D(2) dopamine receptor [3]; 4000 nM at D(1A) dopamine receptor.

Take `CNc1cc(OC)c(C(=O)NC2CCN(Cc3ccccc3)CC2)cc1Cl`: the Ki was found to be 160 nM on D(3) dopamine receptor [1]; 8.3 nM on D(4) dopamine receptor; 15 nM at D(2) dopamine receptor [2]; 24 nM on D(2) dopamine receptor [3]; 6800 nM at D(1A) dopamine receptor.

As to `COc1c(C(=O)NC[C@@H]2CCN(Cc3ccccc3)C2)cc(Br)c2ccccc12` (stereo in doubt), the Ki on D(3) dopamine receptor [1] stood at 1000 nM; on D(4) dopamine receptor, 78 nM; at D(2) dopamine receptor [2] it was 870 nM; on D(2) dopamine receptor [3], 1300 nM; at D(1A) dopamine receptor it was 2900 nM.

Consider `COc1c(C(=O)N[C@@H]2CCN(Cc3ccccc3)C2)cc(I)c2ccccc12` (stereo in doubt; 3h), for which the inhibition constant (Ki) is 34 nM at D(3) dopamine receptor [1]; 1.2 nM on D(4) dopamine receptor; 23 nM on D(2) dopamine receptor [2]; 60 nM on D(2) dopamine receptor [3]; 3000 nM on D(1A) dopamine receptor.

For `COc1c(C(=O)NCC[C@@H]2CCN(Cc3ccccc3)C2)cc(Br)c2ccccc12` (stereo in doubt; 3l), the Ki on D(3) dopamine receptor [1] came out at 580 nM; at D(4) dopamine receptor, 500 nM; at D(2) dopamine receptor [2], 1900 nM; at D(2) dopamine receptor [3] it was 2000 nM; at D(1A) dopamine receptor, 1700 nM.

For the origin of these results see ChEMBL document CHEMBL1136241 (Bioorg Med Chem Lett, 2003).
